Patent US10793575B2, “Oxoisoquinoline derivatives” (CARNA BIOSCIENCES, INC., priority 2016, dated 2020)
pIC50: −log10 of the molar value.

Each compound was assayed on OCI-Ly10 cells (assay: Proliferation-Inhibitory Test Against Diffuse Large-Cell B-Cell Lymphoma OCI-Ly10 Strain). Details: Homo sapiens, 96 hours, alamarBlue.
Format: cell-based
Protocol: OCI-Ly10 cells were cultured in IMDM medium (Iscove's Modified Dulbecco's Medium, Manufactured by Thermo Fisher Scientific Inc., hereinafter “medium”) containing 20% Fetal bovine serum and 1% penicillin-streptomycin (Nacalai Tesque, Inc.) in a 5% CO2 incubator. OCI-Ly10 cells were seeded to 96-well plate (20000 cells/well), compounds diluted with medium were added with final concentrations of 0.9 nM to 30000 nM (Final DMSO concentration, 0.3%), incubated for 96 hours and alamorBlue reagent (Thermo Fisher Scientific Inc.) was added.

| Structure (SMILES) | pIC50 |
| --- | --- |
| Nc1nc(-c2cccc(-n3ccc4cc(C5CC5)cc(F)c4c3=O)c2CO)c2cc(-c3ccc(CN4CCC(O)CC4)cc3)[nH]c2n1 [Example 73, 2-[3-(2-amino-6-{4-[(4-hydroxypiperidin-1-yl)methyl)phenyl}-7H-pyrrolo[2,3-d]pyrimidin-4-yl)-2-(hydroxymethyl)phenyl]-6-cyclopropyl-8-fluoroisoquinolin-1(2H)-one] | 7.96 |
| COC1CCN(Cc2ccc(-c3cc4c(-c5cccc(-n6ccc7cc(C8CC8)cc(F)c7c6=O)c5CO)nc(N)nc4[nH]3)cc2)CC1 [Example 74, 2-[3-(2-amino-6-{4-[(4-methoxypiperidin-1-yl)methyl]phenyl}-7H-pyrrolo[2,3-d]pyrimidin-4-yl)-2-(hydroxymethyl)phenyl]-6-cyclopropyl-8-fluoroisoquinolin-1(2H)-one] | 7.89 |
| CC1CN(Cc2ccc(-c3cc4c(-c5cccc(-n6ccc7cc(C8CC8)cc(F)c7c6=O)c5CO)nc(N)nc4[nH]3)cc2)CC(C)O1 (stereo not drawn) [Example 76, 2-[3-(2-amino-6-{4-[(2,6-dimethylmorpholino)methyl]phenyl}-7H-pyrrolo[2,3-d]pyrimidin-4-yl)-2-(hydroxymethyl)phenyl]-6-cyclopropyl-8-fluoroisoquinolin-1(2H)-one] | 7.33 |
| Cn1ccc(-c2cc3c(-c4cccc(-n5ccc6cc(C7CC7)cc(F)c6c5=O)c4CO)nc(N)nc3[nH]2)n1 [Example 78, 2-{3-[2-amino-6-(1-methyl-1H-pyrazol-3-yl)-7H-pyrrolo[2,3-d]pyrimidin-4-yl]-2-(hydroxymethyl)phenyl}-6-cyclopropyl-8-fluoroisoquinolin-1(2H)-one] | 7.30 |
| CC1(C)CCCN(Cc2ccc(-c3cc4c(-c5cccc(-n6ccc7cc(C8CC8)cc(F)c7c6=O)c5CO)nc(N)nc4[nH]3)cc2)C1 [Example 80, 2-[3-(2-amino-6-{4-[(3,3-dimethylpiperidin-1-yl)methyl]phenyl}-7H-pyrrolo[2,3-d]pyrimidin-4-yl)-2-(hydroxymethyl)phenyl]-6-cyclopropyl-8-fluoroisoquinolin-1(2H)-one] | 7.15 |
| Nc1nc(-c2cccc(-n3ccc4cc(C5CC5)cc(F)c4c3=O)c2CO)c2cc(C3=CCSCC3)[nH]c2n1 [Example 82, 2-{3-[2-amino-6-(3,6-dihydro-2H-thiopyran-4-yl)-7H-pyrrolo[2,3-d]pyrimidin-4-yl]-2-(hydroxymethyl)phenyl}-6-cyclopropyl-8-fluoroisoquinolin-1(2H)-one] | 7.62 |

More lines, now with the values ahead:

| pIC50 | Structure (SMILES) |
| --- | --- |
| 8.00 | CC(=O)N1CCN(Cc2ccc(-c3cc4c(-c5cccc(-n6ccc7cc(C8CC8)cc(F)c7c6=O)c5CO)nc(N)nc4[nH]3)cc2)CC1 [Example 75, 2-[3-(6-{4-[(4-acetylpiperazin-1-yl)methyl]phenyl}-2-amino-7H-pyrrolo[2,3-d]pyrimidin-4-yl)-2-(hydroxymethyl)phenyl]-6-cyclopropyl-8-fluoroisoquinolin-1(2H)-one] |
| 7.21 | Nc1nc(-c2cccc(-n3ccc4cc(C5CC5)cc(F)c4c3=O)c2CO)c2cc(-c3ccc(CN4CCC(F)(F)CC4)cc3)[nH]c2n1 [Example 77, 2-[3-(2-amino-6-{4-[(4,4-difluoropiperidin-1-yl)methyl]phenyl}-7H-pyrrolo[2,3-d]pyrimidin-4-yl)-2-(hydroxymethyl)phenyl]-6-cyclopropyl-8-fluoroisoquinolin-1(2H)-one] |
| 7.52 | Nc1nc(-c2cccc(-n3ccc4cc(C5CC5)cc(F)c4c3=O)c2CO)c2cc(-c3ccc(CN4CCN(CC(F)(F)F)CC4)cc3)[nH]c2n1 [Example 79, 2-{3-[2-amino-6-(4-{[4-(2,2,2-trifluoroethyl)piperazin-1-yl]methyl}phenyl)-7H-pyrrolo[2,3-d]pyrimidin-4-yl]-2-(hydroxymethyl)phenyl}-6-cyclopropyl-8-fluoroisoquinolin-1(2H)-one] |
